Laboratory results reported in ChEMBL document CHEMBL5505987 (Eur J Med Chem, 2024).

Legend:
Type in all cases: functional, cell-based
[1] = tested on: HeLa; assay: Cytotoxicity against human HeLa cells assessed as cell viability by MTT assay
[2] = tested on: A549; assay: Cytotoxicity against human A549 cells assessed as cell viability by MTT assay
[3] = tested on: MCF7; assay: Cytotoxicity against human MCF7 cells assessed as cell viability by MTT assay
[4] = tested on: MDA-MB-231; assay: Cytotoxicity against human MDA-MB-231 cells assessed as cell viability by MTT assay

| Structure (SMILES) | IC50 [1] [µM] | IC50 [2] [µM] | IC50 [3] [µM] | IC50 [4] [µM] |
| --- | --- | --- | --- | --- |
| O=C1C[C@@H](c2ccccc2)Oc2cc(O)c([C@@H](/C=C/C[C@@H](O)CCc3ccccc3)c3ccccc3)c(O)c21 | 0.67 | 3.27 | 4.16 | 1.48 |
| O=C1C[C@H](c2ccccc2)Oc2cc(O)c([C@H](/C=C/C[C@@H](O)CCc3ccccc3)c3ccccc3)c(O)c21 | 1.58 | 5.59 | 12.5 | 3.45 |
